These results are taken from US20140287995A1, “STABLE PHARMACEUTICAL FORMULATIONS OF GROWTH FACTOR PEPTIDES” (THE UNIVERSITY OF CHICAGO, priority 2011, published 2014).

In data set [1] the test system is non-transformed African Green Monkey kidney epithelial (BSC-1) cells. In words: Mitogenic response of BSC-1 cells (cell number counted in a hemocytometer after 4 days). It counts as cell-based. The conditions noted are these: for mitogenic activity of excipient without NX001: 20 mM histidine or 8.8% sucrose, alone or together, diluted 160-fold, FIG. 3A. On the procedure: Various lots of unformulated NX001 can be assayed for bioactivity using the mitogenic response of BSC-1 cells as an indicator (see, for instance, U.S. Pat. No. 6,096,706). In this example, two lots of NX001 peptide (Lots PPL-WGF0501A and lot PPL WGF0801) were tested. Varying amounts of the two peptides were added to near-confluent monolayers of non-transformed African Green Monkey kidney epithelial (BSC-1) cells, and the number of cells was counted in a hemocytometer 4 days later.
Each formulation was reconstituted with 1.0 mL water, and was swirled to dissolve the contents. Each solution was then be diluted to 0.125 mg/mL with water. Aliquots of 8 μL each was added to triplicate wells of BSC-1 cells to yield final concentrations of NX001 from 0.05 to 0.4 μg/mL. The plates were incubated at 37° C. for 4 days, and then cells was counted. A third lot of NX001 (PPL-WGF0801) that is not formulated and not lyophilized was dissolved and diluted in water and was used as positive control.
To investigate whether excipients alone or in combination might modify the mitogenic activity, NX001 was added to 20 mM histidine, 8.8% sucrose or the combination and the solutions were diluted to 0.125 mg/mL. Each of the near confluent monolayers of BSC-1 cells in 5 ml DMEM containing 40 μM biotin and 0.5% calf serum received either 8 μl of water, 8 μl of an excipient, or 0.2 μg/ml of PPL-WGF0801 in a final volume of 8 μl of 8.8% sucrose or 20 mM histidine (pH 5.5), or both.
An experiment to determine whether the pH of formulated NX001 affected bioactivity was performed. In this experiment, NX001 (lot PPLWGF0801) was used as a positive control and was dissolved in water to […], diluted 1/160 with water to 0.125 mg/mL, and 8 μL was added to assay plates to a final concentration of 0.2 μg/mL. (see FIG. 4, bar 1).
NX001 (lot PPLWGF0801) was dissolved to 20 mg/mL in either water or PBS, diluted to 0.125 mg/mL in water or PBS as specified, and 8 μL was then added to assay plates to a final concentration of […].
To insure that formulation of NX001 yielded a solution for injection that was as physiological as possible, the formulation of NX001 was adjusted to provide a neutral, iso-osmotic preparation. The adjusted formulation contains 20 mg/mL NX001, 20 mM histidine, 200 mM sucrose at a pH of 7.25, or 80 mg/mL NX001, 20 mM histidine, 15 mM sucrose, pH 7.25. Vials of formulated and lyophilized NX001 at either 80 mg/mL or 20 mg/mL were reconstituted with 1 mL water and diluted to […] before bioassay.

The nature of data set [2]: Stability of neutral lyophilized NX001 formulation, 12 months storage. The format is physicochemical. How it is done:
The stability of NX001 formulations was also evaluated. The stability of a lot of NX001 was monitored for 12 months at storage temperatures of 5° C. and 25° C. Appearance of lyophilized cake, reconstitution time, appearance of the reconstituted solution, pH, identity of the peptide, potency and purity of the peptide, and residual moisture were evaluated.
The evaluated parameters of neutral formulations of NX001 were not changed following 12 months storage at temperatures of 5° C. and 25° C.

Data set [3] in a line: pH of histidine/sucrose solutions after addition of NX001. The format is physicochemical. The conditions noted are these: 20 mM histidine. How it is done: Next, 20 mM histidine, containing 8.8% sucrose was prepared and the pH was adjusted to 5.5 with HCl. Similarly, additional solutions of 20 mM histidine containing 8.8% sucrose were prepared and the pH was adjusted to 7.5 and 9.0. These solutions were diluted 1/160 and 8 μL aliquots added to plates of BSC-1 cells. As shown in FIG. 4 (bars 2, 3, 4), the solutions were not mitogenic themselves. NX001 was dissolved in each of solution to 0.125 mg/mL.

The mark [4] stands for this setting: 5° C., After 12 months of storage.
Where [5] appears, read: 25° C., After 12 months of storage.

`N[C@@H](Cc1c[nH]cn1)C(=O)O` [histidine]: the “mitogenic activity of excipient without NX001” value in data set [1] was “did not exhibit mitogenic activity”.

`OC[C@H]1O[C@@](CO)(O[C@H]2O[C@H](CO)[C@@H](O)[C@H](O)[C@H]2O)[C@@H](O)[C@@H]1O` [sucrose]: in data set [1], the “mitogenic activity of excipient without NX001” value is recorded as “did not exhibit mitogenic activity”.

Consider “AQPYPQGNHEASYG [NX001, growth factor peptide designated NX001; PPL-WGF codes are lots of it]”, for which the Cake appearance entry in data set [2] (setting [4]) is reported as “White cake”; in data set [2] (5° C., Initial) it was “White cake”; in data set [2] (setting [5]), “White cake”; in data set [2] (25° C., Initial) it was “White cake”. For the same compound, the “Potency (% of NX001 recovered in main peak compared to stated vial concentration)” value in data set [2] (setting [4]) is 99.6%; in data set [2] (5° C., Initial), 102%; in data set [2] (setting [5]) it was 97.9%; in data set [2] (25° C., Initial), 102%. The Purity turned out to be 98.8% in data set [2] (setting [4]); 98.8% in data set [2] (5° C., Initial); 98.4% in data set [2] (setting [5]); 98.8% in data set [2] (25° C., Initial). For the same compound, the Reconstituted appearance result in data set [2] (setting [4]) is recorded as “Clear, colorless”; in data set [2] (5° C., Initial), “Clear, colorless”; in data set [2] (setting [5]), “Clear, colorless”; in data set [2] (25° C., Initial), “Clear, colorless”. The Reconstitution time in data set [2] (setting [4]) came to 64 s; in data set [2] (5° C., Initial) it was 45 s; in data set [2] (setting [5]) it was 72 s; in data set [2] (25° C., Initial) it was 45 s. Also, the Residual moisture in data set [2] (setting [4]) worked out at 0.80%; in data set [2] (5° C., Initial), 0.71%; in data set [2] (setting [5]), 1.05%; in data set [2] (25° C., Initial), 0.71%. Also, the Total % impurities came out at 1.2% in data set [2] (setting [4]); 1.2% in data set [2] (5° C., Initial); 1.6% in data set [2] (setting [5]); 1.2% in data set [2] (25° C., Initial). For the same compound, the pH was found to be 7.2 in data set [2] (setting [4]); 7.2 in data set [2] (5° C., Initial); 7.3 in data set [2] (setting [5]); 7.2 in data set [2] (25° C., Initial). In addition, the “pH of solution after dissolving NX001” value in data set [3] (8.8% sucrose adjusted to pH 5.5 before NX001) is reported as < 5.0; in data set [3] (8.8% sucrose adjusted to pH 7.5 before NX001), ~5.5; in data set [3] (8.8% sucrose adjusted to pH 9.0 before NX001), ~6.5. In addition, the cell growth result in data set [1] (NX001 0.2 μg/mL added separately from histidine/sucrose solutions of pH 5.5, 7.5, 9.0, FIG. 4 bars 8, 9, 10) is given as “increased cell growth to the same extent as the positive control alone”. Besides, the growth-promoting activity entry is listed as “abolished” in data set [1] (NX001 0.2 μg/ml in the presence of 20 mM histidine (pH 5.5) alone, FIG. 3B) and “abolished” in data set [1] (NX001 0.2 μg/ml in the presence of histidine plus sucrose, FIG. 3B). Also, the “increase in cell number” value is listed as 23% in data set [1] (NX001 0.2 μg/ml in the presence of 8.8% sucrose, FIG. 3B); 36% in data set [1] (NX001 alone, 0.2 μg/ml, FIG. 3B); “increased cell number by the same amount” in data set [1] (NX001 dissolved in PBS and diluted in water, 0.125 μg/mL, FIG. 5 bar 4); > 24% in data set [1] (NX001 dissolved in histidine/sucrose and diluted in PBS (pH 7.25), FIG. 5 bar 7); ~30% in data set [1] (lot PPL-WGF0501A dissolved in PBS immediately before assay, FIG. 6 closed circles). Further, in data set [1] (NX001 dissolved and diluted in water, 0.125 μg/mL, FIG. 5 bar 3), the “increase in growth of BSC-1 cells” value came to 24%. For the same compound, the mitogenicity result is listed as “not mitogenic” in data set [1] (NX001 dissolved in 20 mM histidine, 8.8% sucrose, resulting pH <5.0, ~5.5, ~6.5, not neutralized, FIG. 4 bars 5, 6, 7); “mitogenic to the same extent as the positive control” in data set [1] (NX001 in 20 mM histidine, 8.8% sucrose neutralized with NaOH to pH 7.5 before dilution in water, FIG. 4 bars 11, 12, 13); “not mitogenic” in data set [1] (formulated at 20 mg/mL in 20 mM histidine, 254 mM sucrose, pH 6.5, lyophilized, reconstituted with water, 0.05 to 0.4 μg/mL, FIG. 2). The mitogenic activity result in data set [1] (NX001 dissolved in histidine/sucrose (final pH 5.5), diluted in water, FIG. 5 bar 5) was “inactive”; in data set [1] (NX001 dissolved in histidine/sucrose, neutralized with NaOH to pH 7.5, diluted in water, FIG. 5 bar 6), “active”; in data set [1] (lot PPL-WGF0501A dissolved in 20 mM histidine, 200 mM sucrose, pH 7.25 immediately before assay, FIG. 6 open circles), “active”. Moreover, in data set [1] (unformulated NX001 peptide lots, BSC-1 cells, FIG. 1), the maximal mitogenic response is recorded as ~26%.

On to “gly-tyr-glu-ser-pro-ala-his-gly-tyr-gln-ala-pro-asn-gln (GYESPAHGYQAPNQ) [Scrambled NX001 peptide, 14-amino acid peptide including the same amino acids as NX001, but in scrambled order, reference compound]”, for which the “promotion of cell growth” value in data set [1] (FIG. 6 closed squares) is on record as “did not promote cell growth”.
